Activity calls are given as the source filed them. No cut-off for these calls is given here.
Legend:
[1] = tested on: MDA-MB-231; experiment: Antiproliferative activity against human MDA-MB-231 cells assessed as inhibition of cell growth after 72 hrs by MTT assay; type: functional, cell-based; conditions: MDA-MB-231, 72 h
[2] = tested on: PC-3; experiment: Antiproliferative activity against human PC-3 cells assessed as inhibition of cell growth after 72 hrs by MTT assay; type: functional, cell-based; conditions: PC-3, 72 h
[3] = tested on: A549; experiment: Antiproliferative activity against human A549 cells assessed as inhibition of cell growth after 72 hrs by MTT assay; type: functional, cell-based; conditions: A549, 72 h
[4] = tested on: DU-145; experiment: Antiproliferative activity against human DU-145 cells assessed as inhibition of cell growth after 72 hrs by MTT assay; type: functional, cell-based; conditions: DU-145, 72 h
[5] = Anticancer activity against mouse RM1 cells assessed as increase in mean fluorescence intensity at 2 nM measured after 24 hrs by flow cytometry analysis (reference value: 7.40+/-3.96 ); type: functional
[6] = tested on: PC-3; experiment: Inhibition of autophagy in human PC-3 cells assessed as increase in number of autophagosomes at 50 uM measured after 3 hrs by immunofluorescence imaging based analysis; type: functional, cell-based
[7] = Antitumor activity against mouse RM1 cells homografted in C57BL/6 mouse model assessed as tumor growth inhibition at 5 mg/kg, iv administered every two days for 14 days by vernier caliper based analysis relative to control; type: functional; conditions: RM1, 336 h, time 14 day, read-out: TGI
[8] = Toxicity in ICR mouse assessed as bone marrow suppression by measuring hemoglobin count at 5 mg/kg, ip measured for 14 days; type: organism-based; conditions: in vivo, 336 h, time 14 day
[9] = tested on: RM1; experiment: Antitumor immunity against mouse RM1 cells homografted in C57BL/6 mouse model assessed as increase in tumor infiltrating helper T lymphocytes in spleen at 5 mg/kg, iv administered every two days for 14 days by flow cytometry analysis; type: functional, organism-based; conditions: time 14.0 day
[10] = Antitumor immunity against mouse RM1 cells homografted in C57BL/6 mouse model assessed as increase in tumor infiltrating helper T lymphocytes at 5 mg/kg, iv administered every two days for 14 days by flow cytometry analysis (reference value: 6.59%); type: functional; conditions: time 14 day
[11] = Antitumor immunity against mouse RM1 cells homografted in C57BL/6 mouse model assessed as increase in tumor infiltrating CD3+CD8+T cells (CTLs) at 5 mg/kg, iv administered every two days for 14 days by flow cytometry analysis (reference value: 0.89%); type: functional; conditions: time 14 day
[12] = Toxicity in ICR mouse assessed as decrease in lymphocytes at 5 mg/kg, ip measured for 14 days; type: organism-based; conditions: in vivo, 336 h, time 14 day
[13] = tested on: RM1; experiment: Antitumor immunity against mouse RM1 cells homografted in C57BL/6 mouse model assessed as increase in tumor infiltrating CD3+CD8+T cells (CTLs) in spleen at 5 mg/kg, iv administered every two days for 14 days by flow cytometry analysis; type: functional, organism-based; conditions: time 14.0 day
[14] = tested on: RM1; experiment: Antitumor immunity against mouse RM1 cells homografted in C57BL/6 mouse model assessed as increase in activation of tumor infiltrating lymphocytes in spleen at 5 mg/kg, iv administered every two days for 14 days by flow cytometry analysis; type: functional, organism-based; conditions: time 14.0 day
[15] = Toxicity in ICR mouse assessed as bone marrow suppression by measuring WBC level at 5 mg/kg, ip measured for 14 days; type: organism-based; conditions: in vivo, 336 h, time 14 day
[16] = Antitumor immunity against mouse RM1 cells homografted in C57BL/6 mouse model assessed as increase in tumor infiltrating lymphocytes at 5 mg/kg, iv administered every two days for 14 days by flow cytometry analysis (reference value: 5.26%); type: functional; conditions: time 14 day
[17] = Antitumor activity against mouse RM1 cells xenografted in immunocompetent […] mouse model assessed as tumor growth inhibition at 5 mg/kg, iv measured every two days for 14 days relative to control; type: functional; conditions: RM1, 336 h, time 14 day, read-out: TGI
[18] = Toxicity in ICR mouse assessed as bone marrow suppression by measuring RBC level at 5 mg/kg, ip measured for 14 days; type: organism-based, Erythrocyte; conditions: in vivo, 336 h, time 14 day
[19] = Toxicity in ICR mouse assessed as effect on ALT level at 5 mg/kg, ip measured for 14 days; type: organism-based; conditions: in vivo, 336 h, time 14 day

Compound	IC50 [1] [nM]	IC50 [2] [nM]	IC50 [3] [nM]	IC50 [4] [nM]	other results
COc1cc(-c2nc(C(=O)O)cc3cc4c(cc23)OCCO4)cc(OC)c1OC	> 10000	> 10000	> 10000	> 10000	
COc1cccc2c1C(=O)c1c(O)c3c(c(O)c1C2=O)C[C@@](O)(C(=O)CO)C[C@@H]3O[C@H]1C[C@H](N)[C@H](O)[C@H](C)O1 [DOXORUBICIN]					Flu intensity [5]: 184.3
CCOc1ccc2c(-c3cc(OC)c(OC)c(OC)c3)nc(C(N)=O)cc2c1	> 10000	> 10000	> 10000	> 10000	
COc1cc(-c2nc(C(N)=O)cc3cc4c(cc23)OCCO4)cc(I)c1OC	300	170	180	300	
COc1cc(-c2nc(C(N)=O)cc3cc4c(cc23)OCCO4)cc(Cl)c1OC	210	200	160	270	
COc1cc(-c2nc(C(N)=O)cc3cc4c(cc23)OCCO4)cc2c1OCCCO2	> 10000	3340	2950	8350	
COc1c(Br)cc(-c2nc(C(N)=O)cc3cc4c(cc23)OCCO4)cc1Br	400	270	200	320	
COC(=O)c1cc2cc3c(cc2c(-c2cc(OC)c(OC)c(OC)c2)n1)OCCO3	3210	1570	1530	2100	
CCCOc1c(OC)cc(-c2nc(C(N)=O)cc3cc4c(cc23)OCCO4)cc1OC	2420	1990	1390	1640	
COc1cc2c(c(OC)c1OC)-c1ccc(OC)c(=O)cc1[C@@H](NC(C)=O)CC2 [COLCHICINE]	120	50		70	
COc1cc(-c2nc(C(=O)NO)cc3cc4c(cc23)OCCO4)cc(OC)c1OC	1580	1480	1750	1940	
CCN(CC)CCCC(C)Nc1ccnc2cc(Cl)ccc12 (stereo unspecified)					inhibition [6]: Active
COc1cc(-c2nc(CO)cc3cc4c(cc23)OCCO4)cc(OC)c1OC	1350	1630	1260	1460	
COc1cc(-c2nc(C(N)=O)cc3cc4c(cc23)OCCO4)cc2c1OCCO2	750	1350	1850	1560	
CCCOc1ccc2c(-c3cc(OC)c(OC)c(OC)c3)nc(C(N)=O)cc2c1	> 10000	> 10000	> 10000	> 10000	
CCOc1c(OC)cc(-c2nc(C(N)=O)cc3cc4c(cc23)OCCO4)cc1OC	> 10000	> 10000	> 10000	> 10000	
CCCOc1cc(-c2nc(C(N)=O)cc3cc4c(cc23)OCCO4)cc(OC)c1OC	> 10000	> 10000	5560	> 10000	
COc1cc(-c2nc(C(N)=O)cc3cc(OCCCN4CCOCC4)ccc23)cc(OC)c1OC	> 10000	> 10000	> 10000	> 10000	
COc1cc(-c2nc(C(N)=O)cc3cc4c(cc23)OCCO4)cc(OC)c1OC	1270	1180	840	1050	
COc1cc2c(O)c3c(c(-c4ccc5c(c4)OCO5)c2cc1OC)C(=O)OC3 [DIPHYLLIN]	2270	210	890	380	
COc1ccc2c(-c3cc(OC)c(OC)c(OC)c3)nc(C(N)=O)cc2c1	> 10000	> 10000	> 10000	> 10000	
CCOc1cc(-c2nc(C(N)=O)cc3cc4c(cc23)OCCO4)cc(OC)c1OC	480	390	370	540	
COc1c(I)cc(-c2nc(C(N)=O)cc3cc4c(cc23)OCCO4)cc1I	730	1980	2150	3220	
CC(=O)O[C@H]1C(=O)[C@@]2(C)[C@H]([C@H](OC(=O)c3ccccc3)[C@]3(O)C[C@H](OC(=O)[C@H](O)[C@@H](NC(=O)c4ccccc4)c4ccccc4)C(C)=C1C3(C)C)[C@]1(OC(C)=O)CO[C@@H]1C[C@@H]2O [PACLITAXEL]					inhibition in vivo at 5 mg/kg [7]: 54.6%; Activity [8]: Toxic; Activity [9]: inactive; Activity [10]: 9.81%; Activity [11]: 1.16%; Activity [12]: Toxic; Activity [13]: inactive; Activity [14]: Active; Activity [15]: Toxic; Activity [16]: 5.68%; inhibition in vivo at 5 mg/kg [17]: 55.5%; Activity [18]: Toxic; Activity [19]: Toxic
COc1cc(-c2nc(C(N)=O)cc3cc4c(cc23)OCCO4)cc2c1OCO2	1310	1120	2010	750	
COc1c(Cl)cc(-c2nc(C(N)=O)cc3cc4c(cc23)OCCO4)cc1Cl	870	640	250	490	

From ChEMBL document CHEMBL5528053, “Discovery of Novel Isoquinoline Analogues as Dual Tubulin Polymerization/V-ATPase Inhibitors with Immunogenic Cell Death Induction” (J Med Chem, 2024)
